14 compounds from patent publication US11052072B2, “Pyrazolo[4,3-C] quinoline derivatives for inhibition of β-glucuronidase” (Kaohsiung Medical University, priority 2015, dated 2021) can be followed below.

In data set [1] the target is T1, human liver-glucuronidase (hβG) (Homo sapiens, UniProt P08236).
T1 sequence (P08236 23-651): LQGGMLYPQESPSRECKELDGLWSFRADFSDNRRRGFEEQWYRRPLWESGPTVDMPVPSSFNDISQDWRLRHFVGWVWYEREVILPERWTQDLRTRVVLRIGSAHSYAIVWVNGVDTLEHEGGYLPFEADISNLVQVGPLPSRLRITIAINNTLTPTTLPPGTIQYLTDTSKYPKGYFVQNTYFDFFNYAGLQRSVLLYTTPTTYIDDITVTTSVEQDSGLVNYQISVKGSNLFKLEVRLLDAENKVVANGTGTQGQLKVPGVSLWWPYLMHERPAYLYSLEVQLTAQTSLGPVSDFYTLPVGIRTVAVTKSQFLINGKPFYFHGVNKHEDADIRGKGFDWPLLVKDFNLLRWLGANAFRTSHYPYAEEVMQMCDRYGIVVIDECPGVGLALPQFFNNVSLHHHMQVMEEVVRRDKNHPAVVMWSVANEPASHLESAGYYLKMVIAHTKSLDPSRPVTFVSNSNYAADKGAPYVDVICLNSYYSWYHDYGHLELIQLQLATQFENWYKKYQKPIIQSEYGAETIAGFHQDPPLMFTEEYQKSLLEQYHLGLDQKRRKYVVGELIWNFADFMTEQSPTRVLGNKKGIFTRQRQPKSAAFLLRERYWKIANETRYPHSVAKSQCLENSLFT
Kind of data set: Inhibition of purified recombinant hβG activity (pNPG substrate, OD420). Particulars: read-out: Percent activity of human liver-glucuronidase at 10 μM (%). In kind it is biochemical. As for the experimental part: (§1) The pyrazolo[4,3-c]quinoline derivatives were examined for their inhibition against eβG or hβG activity. Purified recombinant eβG or hβG proteins were incubated with serial dilution of the inhibitors, respectively. The βG activity was determined by color development of a βG substrate, pNPG. The hydrolysis product of pNPG, PNP was measured by OD420.

Data set [2] has as its target E. coli β-glucuronidase (eβG) (Escherichia coli, UniProt P05804). Kind of data set: Inhibition of purified recombinant eβG activity (pNPG substrate, OD420). In kind it is biochemical. Particulars: for Inhibition efficacy of eβG activity compared with βG-Inh: FIG. 1; for remaining activity at 10 µM: read-out: Percent activity of E. coli-glucuronidase at 10 μM (%); for Selective inhibition of eβG versus hβG (in words): recombinant eβG and hβG, serial dilution of inhibitors (FIG. 1). The protocol:
as §1

The target in data set [3] is T2, endogenous eβG activity (Escherichia coli, UniProt P05804).
T2 construct: endogenous in cells; host or cells: BL21 E. coli
T2 sequence (P05804 whole entry): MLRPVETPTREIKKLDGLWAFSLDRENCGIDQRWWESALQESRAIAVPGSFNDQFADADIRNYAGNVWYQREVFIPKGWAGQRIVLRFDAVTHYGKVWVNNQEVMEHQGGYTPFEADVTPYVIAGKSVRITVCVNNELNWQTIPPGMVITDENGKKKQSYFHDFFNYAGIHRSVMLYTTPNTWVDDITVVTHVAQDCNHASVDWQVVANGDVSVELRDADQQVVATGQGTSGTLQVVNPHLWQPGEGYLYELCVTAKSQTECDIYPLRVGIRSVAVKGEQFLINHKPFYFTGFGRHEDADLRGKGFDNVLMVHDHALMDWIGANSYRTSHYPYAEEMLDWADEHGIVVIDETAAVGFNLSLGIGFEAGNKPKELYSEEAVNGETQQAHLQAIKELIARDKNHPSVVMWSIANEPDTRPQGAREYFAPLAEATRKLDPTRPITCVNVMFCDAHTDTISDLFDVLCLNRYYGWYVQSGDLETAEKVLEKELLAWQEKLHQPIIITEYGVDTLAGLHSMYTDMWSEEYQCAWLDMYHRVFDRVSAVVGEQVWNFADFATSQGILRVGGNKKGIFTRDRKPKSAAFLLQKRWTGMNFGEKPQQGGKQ
Kind of data set: Endogenous β-glucuronidase activity assay in BL21 E. coli cells. In kind it is cell-based. Particulars: at both low (10 μM) or high concentration (50 μM) (FIG. 2). As for the experimental part:
The pyrazolo[4,3-c]quinoline derivatives were examined for their inhibition against endogenous eβG activity. This assay is similar with the in vitro assay. BL21 E. coli cells were grown to an OD600 of 0.35 in LB medium. E. coli were 4 times diluted and incubated with each inhibitor. The endogenous eβG activity was measured by detecting PNP as described.

Data set [4] relates to TOP10 E. coli cells. Kind of data set: E. coli growth assay (OD600). In kind it is cell-based. Particulars: 100 μM; OD600 at 6 hour after treatment; TOP10 E. coli (FIG. 4). The protocol:
The pyrazolo[4,3-c]quinoline derivatives were examined for effects on the growth of E. coli. TOP10 E. coli cells were grown to an OD600 of 0.35 in LB medium and treated with each inhibitor. E. coli cell cultures were monitored by reading OD600 at 6 hour after treatment. The cell viability were compared to non-inhibitor control group and shown in % control.

Data set [5] concerns intestinal βG activity. Kind of data set: In vivo image of intestinal β-glucuronidase activity (FDGlcU pro-probe). Particulars: mice, oral 60 μg/200 μl per day for five days; FDGlcU on sixth day (FIG. 5A). Set-up: species or system Balb/cJ mice. As for the experimental part: 17 (TCH-3511) or 32 (TCH-3510) was examined for its inhibition against intestinal βG activity in mice by in vivo image of eβG activity. 5 (TCH-3562), 17 (TCH-3511) or 32 (TCH-3510) was dissolved in ddH2O. Healthy 6-10 week old female Balb/cJ mice were oral administrated with 5 (TCH-3562), 17 (TCH-3511), 32 (TCH-3510) or ddH2O per day (60 μg/200 μl) for five consecutive days. FDGlcU, a βG fluorescent pro-probe was oral feed at the sixth day. The βG activity was detected by in vivo optical imaging system.

Setting [6] is: 10 μM, purified recombinant hβG, pNPG, means ± S.D. of at least three separate experiments.

Like-named read-outs stand apart in the source and are kept apart here.

E. coli β-glucuronidase (eβG), sequence (P05804 whole entry): as above

Usually melting point stands for the temperature of the solid-liquid transition. `Nc1n[nH]c2c1c(Nc1ccc(Cl)cc1)nc1ccccc12` [Compound 4, 3-Amino-4-(4-chlorophenylamino)-1H-pyrazolo[4,3-c]quinoline] returned a melting point of 246 to 248 °C. Further, the remaining activity at 10 µM in data set [1] (setting [6]) was 113 ± 2.83%. Besides, in data set [2], the “Inhibition efficacy of eβG activity compared with βG-Inh” value is “better inhibition efficacy of eβG activity than βG-Inh”, the remaining activity at 10 µM stood at 4.5 ± 0.71% and the “Selective inhibition of eβG versus hβG (in words)” value (“Selective inhibition” below) is recorded as “selectively inhibited eβG activity but not hβG”. Besides, the “Inhibition efficacy of endogenous eβG activity compared with βG-Inh” value in data set [3] is “better inhibition efficacy of endogenous eβG activity than βG-Inh”.
`Cc1ccc(Nc2nc3ccccc3c3[nH]nc(N)c23)cc1` [Compound 5, 3-Amino-4-(4-methylphenylamino)-1H-pyrazolo[4,3-c]quinoline] returned a melting point of 292 to 294 °C. Also, the remaining activity at 10 µM in data set [1] (setting [6]) came to 110 ± 2.12%. In addition, in data set [2], the “Inhibition efficacy of eβG activity compared with βG-Inh” value is on record as “better inhibition efficacy of eβG activity than βG-Inh”, the remaining activity at 10 µM was found to be 4.5 ± 0.71% and the “Selective inhibition” value was “selectively inhibited eβG activity but not hβG”. The “Inhibition efficacy of endogenous eβG activity compared with βG-Inh” value in data set [3] is “better inhibition efficacy of endogenous eβG activity than βG-Inh”. Moreover, in data set [4], the “Effects on E. coli growth” value is “no effects on E. coli growth”.
For the compound `Nc1n[nH]c2c1c(Nc1cccc(Cl)c1)nc1ccccc12` [Compound 26, N^4-(3-Chlorophenyl)-1H-pyrazolo[4,3-c]quinoline-3,4-diamine], the melting point was in the range of 227 to 229 °C. For the same compound, the remaining activity at 10 µM in data set [1] (setting [6]) came to 97.78 ± 0.01%. The remaining activity at 10 µM in data set [2] was found to be 14.9 ± 2.31%.
The like results for `COc1cccc(Nc2nc3ccccc3c3[nH]nc(N)c23)c1` [Compound 27, 3-Amino-4-(3-methoxyphenylamino)-1H-pyrazolo[4,3-c]quinoline] were, in that order, 184 to 186 °C, 107 ± 1.41% and 8 ± 1.41%.
For `CC(=O)c1cccc(Nc2nc3ccccc3c3[nH]nc(N)c23)c1` [Compound 28, 3-Amino-4-(3-acetylphenylamino)-1H-pyrazolo[4,3-c]quinoline], in that order: > 380 °C, 93 ± 2.83% and 91 ± 1%.
The like results for `Nc1n[nH]c2c1c(Nc1ccccc1O)nc1ccccc12` [Compound 29, 3-Amino-4-(2-hydroxyphenylamino)-1H-pyrazolo[4,3-c]quinoline] were, in that order, 156 to 157 °C, 104 ± 2.12% and 7 ± 1%.
`Cc1ccccc1Nc1nc2ccccc2c2[nH]nc(N)c12` [Compound 30, N^4-(o-Tolyl)-1H-pyrazolo[4,3-c]quinoline-3,4-diamine] gave a melting point of 228 to 230 °C. Besides, in data set [1] (setting [6]), the remaining activity at 10 µM stood at 95.69 ± 0.01%. In addition, in data set [2], the remaining activity at 10 µM turned out to be 17 ± 2.1%.
As to `Nc1n[nH]c2c1c(Nc1ccccc1Cl)nc1ccccc12` [Compound 31, N^4-(2-Chlorophenyl)-1H-pyrazolo[4,3-c]quinoline-3,4-diamine], the melting point was 243 to 244 °C. For the same compound, the remaining activity at 10 µM in data set [1] (setting [6]) was 79.81 ± 0.01%. For the same compound, the remaining activity at 10 µM in data set [2] was found to be 29.7 ± 3%.
In turn, `COc1ccccc1Nc1nc2ccccc2c2[nH]nc(N)c12` [Compound 32, 3-Amino-4-(2-methoxyphenylamino)-1H-pyrazolo[4,3-c]quinoline] returned a melting point of 210 to 211 °C. In addition, the remaining activity at 10 µM in data set [1] turned out to be 103 ± 1.41%. The “Inhibition of intestinal βG activity (fluorescence signal in the intestine)” value in data set [5] was “significantly inhibit intestinal βG activity”. For the same compound, in data set [2], the “Inhibition efficacy of eβG activity compared with βG-Inh” value is “better inhibition efficacy of eβG activity than βG-Inh”, the remaining activity at 10 µM is 3.5 ± 0.71% and the “Selective inhibition” value is listed as “selectively inhibited eβG activity but not hβG”. In addition, in data set [3], the “Inhibition efficacy of endogenous eβG activity compared with βG-Inh” value was “better inhibition efficacy of endogenous eβG activity than βG-Inh”. Besides, in data set [4], the “Effects on E. coli growth” value was “no effects on E. coli growth”.
In turn, `COc1ccc(NC(=O)Nc2n[nH]c3c2c(=O)[nH]c2ccccc23)cc1` [Compound 35, 1-(4-Methoxyphenyl)-3-(4-oxo-4,5-dihydro-1H-pyrazolo[4,3-c]-quinolin-3-yl)urea] gave a melting point of 224 to 225 °C. Moreover, in data set [1] (setting [6]), the remaining activity at 10 µM is 81.5 ± 0.71%. In addition, the remaining activity at 10 µM in data set [2] was found to be 52 ± 4.24%.
Compound `O=C(Nc1ccccc1)Nc1n[nH]c2c1c(Nc1ccc(Cl)cc1)nc1ccccc12` [Compound 36, 1-{4-[(4-Chlorophenyl)amino]-1H-pyrazolo[4,3-c]quinolin-3-yl}-3-phenylurea] displayed a melting point of 282 to 283 °C. In data set [1] (setting [6]), the remaining activity at 10 µM was 83.1 ± 1.29%. Also, the remaining activity at 10 µM in data set [2] came out at 4 ± 1%.
For `Cc1ccc(Nc2nc3ccccc3c3[nH]nc(NC(=O)Nc4ccccc4)c23)cc1` [Compound 37, 1-Phenyl-3-[4-(p-tolylamino)-1H-pyrazolo[4,3-c]quinolin-3-yl]urea], in that order: 212 to 213 °C, 82 ± 1.41% and 3 ± 1%.
For `COc1ccc(NC(=O)Nc2n[nH]c3c2c(Nc2ccc(Cl)cc2)nc2ccccc23)cc1` [Compound 38, 1-{4-[(4-Chlorophenyl)amino]-1H-pyrazolo[4,3-c]quinolin-3-yl}-3-(4-methoxyphenyl)urea], in that order: 211 to 212 °C, 85.5 ± 0.71% and 4 ± 1%.
The like results for `COc1ccc(NC(=O)Nc2n[nH]c3c2c(Nc2ccc(C)cc2)nc2ccccc23)cc1` [Compound 39, 1-(4-Methoxyphenyl)-3-[4-(p-tolylamino)-1H-pyrazolo[4,3-c]-quinolin-3-yl]urea] were, in that order, 163 to 164 °C, 87.5 ± 2.12% and 3.5 ± 0.71%.
